# Results: patent US6420570B1, “Psoralen compounds” (priority 1993, dated 2002)
# Where a name gives a salt, the structure may show the parent alone. Read-outs that look alike come from different tables or passages of the source.
# Tests used:
# [1] = test system: R17; test: R17 inactivation at constant concentration, varying doses of UV light; format: cell-based, bacteriophage R17; settings: UV doses 1.0 to 3.0 J/cm^2, FIGS. 11-17
# Procedure: Compounds of the present invention were also tested at a constant concentration for varying doses of UV light. Three sets of 1.5 mL tubes were prepared containing 0.6 mL aliquots of R17 in DMEM (prepared as described above). The compound tested was added at the desired concentration and the samples were vortexed. The samples were then irradiated at intervals of 1.0 J/cm^2, until 3.0 J/cm^2 was reached. Between each 1.0 J/cm^2 interval, 100 μL was removed from each sample and placed in the first corresponding dilution tube, then five sequential dilutions were performed for each compound tested, at all 3 irradiation doses, as described above in this example.
# Then 50 μL of Hfr 3000 bacteria was added to each tube, 3 mL of top agar was added and the tube contents were vortexed. The contents of each tube was poured into its own LB plate and the plates were incubated overnight at 37° C. Plaques were counted by visual inspection the following morning.
# [2] = test system: TA100
# Procedure: In this example the compounds of the present invention are tested for their dark mutagenicity using an Ames assay. The procedures used for the Salmonella mutagenicity test as described in detail by Maron and Ames were followed exactly. Maron, D. M. and B. N. Ames, Mutation Research 113:173 (1983). A brief description for each procedure is given here. The tester strains TA97a, TA98, TA100, TA102, TA1537 and TA1538 were obtained from Dr. Ames. TA97a, TA98, TA1537 and TA1538 are frameshift tester strains. TA100 and TA102 are base-substitution tester strains. Upon receipt each strain was cultured under a variety of conditions to confirm the genotypes specific to the strains.
# The first tests done with the strains were to determine the range of spontaneous reversion for each of the strains. With each mutagenicity experiment the spontaneous reversion of the tester strains to histidine independence was measured and expressed as the number of spontaneous revertants per plate. This served as the background controls.
# For all experiments, the pre-incubation procedure was used. In this procedure one vial of each tester strain was thawed and 20 μL of this culture was added to 6 mL of Oxoid Nutrient Broth #2. This solution was allowed to shake for 10 hours at 37° C. In the pre-incubation procedure, 0.1 mL of this overnight culture was added to each of the required number of sterile test tubes. To half of the tubes 0.5 mL of a 10% S-9 solution containing Aroclor 1254 induced rat liver extract (Molecular Toxicology Inc., Annapolis, MD), and MgCl2, KCl, glucose-6-phosphate, NADP, and sodium phosphate buffer (Sigma, St. Louis. Mo.) were added. To the other half of the tubes 0.5 mL of 0.2M sodium phospate buffer, pH 7.4, was used in place of the S-9 mixture (the -S9 samples) Finally 0.1 mL of the test solution containing either 0.0.1, 0.5, 1, 5, 10, 50, 100, 250, or 500 μg/mL of the test compound was added. The 0.7 mL mixture pre-incubated while shaking for 20 minutes at 37° C. After shaking, 2 mL of molten top agar supplemented with histidine and biotin were added to the 0.7 mL mixture and immediately poured onto a minimal glucose agar plate (volume of base agar was 20 ml.). The top agar was allowed 30 minutes to solidify and then the plates were inverted and incubated for 44 hours at 37° C. After incubation the number of revertant colonies on each plate were counted. […] (“n” represents the number of replicates performed for each data point.)
# Maron and Ames (1983) describe the conflicting views with regard to the statistical treatment of data generated from the test.
smiles,measurement,setting,value
"Cc1oc2c(C)c3oc(=O)cc(C)c3cc2c1CNCCCCN [Compound 6, 4′-(6-Aminohexyl-2-aza)-4,5′,8-trimethylpsoralen Dihydrochloride]",R17 inactivation compared with AMT,[1],more efficient at inactivating R17 than was AMT
same,revertant colonies per plate,"[2]; TA100 +S9, 5 μg/plate",12
same,revertant colonies per plate,"[2]; TA100 +S9, 10 μg/plate",−5
same,revertant colonies per plate,"[2]; TA100 −S9, 5 μg/plate",−32
same,revertant colonies per plate,"[2]; TA100 −S9, 10 μg/plate",3
